Laboratory results taken from US9101726B2, “Stem cell immune modulation methods of use and apparatus” (The Board of Trustees of the University of Illinois, priority 2009, dated 2015).

Legend:
[1] = tested on: DNA methyltransferase (DNMT) activity of lymphocytes; test: Regulation of DNA methyltransferase activity of lymphocytes by CB-SC-derived NO; format: cell-based
NO production in CB-SC = test: Real time assay for NO production in CB-SC; format: cell-based, human
allogeneic lymphocytes = test: Suppression of CB-SC on allogeneic lymphocytes in presence of inhibitors; format: cell-based, human
nitric oxide synthase = test: Blocking of the inhibitory effect of stem cells on lymphocytes with nitric oxide synthase inhibitor; format: cell-based
[2] = tested on: CD4+CD25+CD62L+CD69+ Tregs; test: Co-culture of PHA-stimulated lymphocytes with CB-SC in presence of CPM inhibitor and B1R antagonist; format: cell-based, human; details: MGTA 10 μM, DALKD 2 μM
From the text: To examine the cell-cell contacting effects and CPM and B1R contribution to immune modulation of CB-SC on human Tregs, we performed co-culture experiments in the presence of CPM specific inhibitor MGTA and B1R specific inhibitor DALKD. Lymphocytes plated in trans-wells served as controls. […] Data are representative of five experiments.

[3] = in combination with B1R activator DAKD

CC(=N)NCc1cccc(CN)c1 [1400 W]
epigenetic regulation on DNMT activity of lymphocytes by CB-SC-derived NO [1]: significantly blocked
NO production in CB-SC (NO production in CB-SC; [3]): inhibited
suppression of CB-SC on allogeneic lymphocytes (allogeneic lymphocytes): reverse the suppression

NC(=NCCC[C@H](N)C(=O)O)N[N+](=O)[O-] [L-NNA, N-omega-nitro-L-arginine]
inhibitory effect of stem cells mediated by nitric oxide (NO) (nitric oxide synthase): blocking

[Des-Arg10, Leu9] kallidin [DALKD]
positive percentage of CD4+CD25+CD62L+CD69+ Tregs [2]: decrease
NO production in CB-SC (NO production in CB-SC; [3]): inhibited

des-Arg 10-bradykinin (KRPPGFSPF) [DAKD]
NO production in CB-SC (NO production in CB-SC; agent alone): increased
